Drawing on BindingDB's records for doi:10.1021/jm00061a004 (1993), this text covers Ki for one compound.

Data set [1] addresses T1, Cytochrome P450 2D6 (Homo sapiens, UniProt P10635). The data set can be described thus: Inhibitory constant for cytochrome P450 2D6.
Data set [2] concerns the target T1, Cytochrome P450 2D6. The data set can be described thus: Inhibition of partially purified cytochrome P450 2D6 1'-hydroxybufuralol formation.
A further data set deals with CYP2D6 (Homo sapiens, UniProt P10635). The data set can be described thus: Apparent inhibitory constant (Ki) for Bufuralol 1'-hydroxylation by human liver microsomes. The following applies: probe bufuralol (1'-hydroxylation). (In general: Microsomes from liver hold many membrane-bound enzymes, among them those of drug oxidation.)
Sequence of CYP2D6 (P10635 whole entry): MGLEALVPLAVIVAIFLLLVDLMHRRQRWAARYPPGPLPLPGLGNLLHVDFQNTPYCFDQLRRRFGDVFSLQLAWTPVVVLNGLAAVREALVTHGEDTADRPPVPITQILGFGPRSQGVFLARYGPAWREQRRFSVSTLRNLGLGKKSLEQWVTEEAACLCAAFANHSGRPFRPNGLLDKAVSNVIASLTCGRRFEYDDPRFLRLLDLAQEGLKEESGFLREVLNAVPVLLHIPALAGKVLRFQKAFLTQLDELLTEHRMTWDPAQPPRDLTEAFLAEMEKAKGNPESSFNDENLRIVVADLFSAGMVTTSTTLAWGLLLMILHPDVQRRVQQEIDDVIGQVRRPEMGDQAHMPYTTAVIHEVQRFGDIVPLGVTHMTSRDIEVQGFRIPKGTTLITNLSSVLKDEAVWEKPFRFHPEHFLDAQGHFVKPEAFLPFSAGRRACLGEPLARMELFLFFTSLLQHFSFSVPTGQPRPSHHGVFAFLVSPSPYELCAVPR

T1 sequence (P10635 whole entry): as above

Regarding `COC(=O)C1=CO[C@@H](C)[C@H]2CN3CCc4c([nH]c5ccccc45)[C@@H]3C[C@H]12`, the Ki at Cytochrome P450 2D6 [1] came to 3.3 nM; on Cytochrome P450 2D6 [2], 5.7 nM; at CYP2D6, 4.6 nM.
